Data as given in PubChem BioAssay (NCI).
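Assay format: 96-well plates, 48-hour exposure. GI50: concentration for 50% inhibition of growth. TGI: total growth inhibition.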

Assays:
Test in all cases: DTP human tumour cell line panel, 48 h
UACC-62 melanoma = tested on: UACC-62 melanoma
NCI/ADR-RES ovarian = tested on: NCI/ADR-RES ovarian
DU-145 prostate = tested on: DU-145 prostate
ACHN renal = tested on: ACHN renal
CAKI-1 renal = tested on: CAKI-1 renal
A549 NSCLC = tested on: A549 NSCLC
NCI-H226 lung = tested on: NCI-H226 lung
MDA-MB-435 = tested on: MDA-MB-435
SNB-19 CNS = tested on: SNB-19 CNS
HCC-2998 colon = tested on: HCC-2998 colon

Row | Compound | TGI (UACC-62 melanoma) [µM] | TGI (NCI/ADR-RES ovarian) [µM] | TGI (DU-145 prostate) [µM] | TGI (ACHN renal) [µM] | TGI (CAKI-1 renal) [µM] | TGI (A549 NSCLC) [µM] | TGI (NCI-H226 lung) [µM] | TGI (MDA-MB-435) [µM] | TGI (SNB-19 CNS) [µM] | GI50 (UACC-62 melanoma) [µM] | GI50 (DU-145 prostate) [µM] | GI50 (CAKI-1 renal) [µM] | GI50 (NCI-H226 lung) [µM] | TGI (HCC-2998 colon) [µM] | GI50 (NCI/ADR-RES ovarian) [µM] | GI50 (HCC-2998 colon) [µM] | GI50 (ACHN renal) [µM] | GI50 (MDA-MB-435) [µM] | GI50 (A549 NSCLC) [µM] | GI50 (SNB-19 CNS) [µM]
1 | CCc1ccc2nc(-c3ccc(O)cc3)sc2c1 | 25.1 | 32.9 | 28.9 | 38.2 | 26.4 | 44.9 | 30.1 | 39.5 | 35.5 |  |  |  |  |  |  |  |  |  |  | 
2 | CN(C)c1ccc(C(Cc2ccc3ccccc3n2)Cc2ccc3ccccc3n2)cc1 | > 100 |  | > 100 |  | > 100 |  | > 100 |  |  | 3.77 | > 100 | 2.2 | 4.4 |  |  |  |  |  |  | 
3 | N#Cc1c(N)sc2c1-c1ccccc1OC2 | > 100 | > 100 | > 100 | > 100 |  | > 100 | > 100 | > 100 | > 100 |  |  |  |  | > 100 |  |  |  |  |  | 
4 | CCOC(=O)C(O)(NC(=O)c1ccccc1F)C(F)(F)F (centres undefined) | > 100 | > 100 | > 100 | > 100 | > 100 | > 100 | > 100 | > 100 | > 100 |  |  |  |  | > 100 |  |  |  |  |  | 
5 | CCCCCCCCCCCCCC[n+]1ccc2c(C)c3c(c(C)c2c1)c1cc(O)ccc1n3CC | 1.87 | 32.3 | 1.63 | 3.9 |  |  | 1.96 | 1.03 |  | 0.468 | 0.381 |  | 0.418 | 1.81 | 5.13 | 0.435 | 1.22 | 0.314 |  | 
6 | COc1cc(/C=C/C(=O)c2c(C)nc3ccccc3c2C)ccc1OCCCOc1cc2c(cc1OC)C(=O)N1CCC[C@H]1C=N2 | 0.0321 | 5.92 | 0.0802 | 0.106 | 0.138 | 0.0623 | 0.0616 | 0.04 |  | 0.017 | 0.0279 | 0.0291 | 0.0227 | 0.0386 | 0.393 | 0.0183 | 0.0313 | 0.0197 | 0.0268 | 0.187
7 | CO/N=C(\C)COc1ccc2c(=O)c(-c3ccccc3)coc2c1 | 93.6 | 50 | 52.7 | 38.8 |  | > 100 | > 100 | > 100 | > 100 | 26.3 | 23.1 |  | 36.4 |  | 14.5 |  | 19.2 | > 100 | 27.1 | 17.7
8 | COc1cc(C2C(C(=O)O)=C(COC(C)=O)Oc3cc4c(cc32)OCO4)cc(OC)c1OC (centres undefined) | > 100 |  |  | > 100 | > 100 | > 100 |  |  | > 100 |  |  |  |  |  |  |  |  |  |  | 
9 | CNC(=O)N(C)COC | > 100 |  |  | > 100 | > 100 | > 100 | > 100 |  | > 100 |  |  |  |  | > 100 |  |  |  |  |  | 
10 | O=C(O)c1cn2c3c(cc(N4CCN(CCO)CC4)cc3c1=O)SCC2 | > 100 | > 100 |  |  | > 100 | > 100 | > 100 |  | > 100 |  |  |  |  | 93.3 |  |  |  |  |  | 
